Laboratory results reported in patent publication US4212862A, “O,O-Diaryl-1-acyloxy-2,2,2-trichloroethylphosphonates and fungicides based thereon” (priority 1978, dated 1980).
Where “and” joins values, the source holds several entries; their conditions need not be identical. Equal entries are not always repeated. Where two headings read alike, the source gives them in different places.

How the values were obtained:
[1] = test system: stalk rust (Puccinia graminis f. tritici); format: in vivo; conditions: for Plant injury / Weight of 1,000 grains: Table 5, Moscow region, spring wheat Krasnozernaja, 3 sprayings
[2] = test system: rust diseases of cereal crops; test: Activity against rust diseases of cereal crops (general statements); format: in vivo; conditions: frequent heavy rains
[3] = test system: rust diseases of cereal crops; conditions: prior art; cited from earlier work
[4] = test system: stalk rust of wheat (Puccinia graminis); format: in vivo; conditions: in vivo
white mice = test: Acute peroral toxicity for warm-blooded animals (LD50, LD90); format: in vivo; conditions: Table 2; peroral; 20160 min
Method: (§1) Toxicity (LD50) was evaluated on males and females of white mice with peroral administration of the compounds. A portion of the test compound was mixed with the emulsifier Twin-20 and diluted with distilled water to the required working concentration. Administration of the preparation was effected by means of a metal probe and syringe directly into the stomach of test animals 2-3 hours after feeding. The tests were performed using several doses, 6 animals per each dose. Subsequent observation was effected for two weeks.

[5] = as above; format: in vivo, white mice; conditions: mouse, in vivo, po, Table 2; peroral; read-out: LD50 for white mice
Method: as §1

[6] = test system: stalk rust (Puccinia graminis f. tritici); format: in vivo; conditions: in vivo
[7] = test system: spores of Piricularia oryzae Cav.; format: cell-based; conditions: 24 hours

SMILES | Plant injury ([1]; 1.5 kg/ha a.p.) | Weight of 1,000 grains ([1]; 1.5 kg/ha a.p.) | Plant injury ([1]; 3.0 kg/ha a.p.) | Weight of 1,000 grains ([1]; 3.0 kg/ha a.p.) | Yield ([1]; in vivo) | efficiency under different agroclimatic conditions including frequent heavy rains [2] | activity against rust diseases [3] | Percentage of injury lowered [4] | LD50 for white mice (white mice) | LD50 at 336 h [5] | Percentage of plants injured with rust, 1-st evaluation [6] | Percentage of plants injured with rust, 2-nd evaluation [6] | Weight of 1,000 grains [6] | Yield [6] | Concentration causing 50% death of spores [7]
CC1=C(C(=O)Nc2ccccc2)S(=O)(=O)CCO1 [Hydroxycarboxine, 1,4-dioxide-2,3-dihydro-6-methyl-5-phenylcarbamoyl-1,4-oxathiine] | 21.7% | 12.0 g | 16.1% | 12.4 g | 9.5 c/ha and 9.3 c/ha | low-effective | efficient in killing rust fungi | – | – | – | – | – | – | – | –
CCCCCCC(=O)OC(C(Cl)(Cl)Cl)P(=O)(Oc1ccc(-c2ccccc2)cc1)Oc1ccc(-c2ccccc2)cc1 (stereo not shown) [XLIX] | – | – | – | – | – | – | – | 49% | > 1,000 mg/kg | – | – | – | – | – | –
CCCCCCC(=O)OC(C(Cl)(Cl)Cl)P(=O)(Oc1cc(C)cc(C)c1)Oc1cc(C)cc(C)c1 (stereo not shown) [XXIX] | – | – | – | – | – | – | – | 85% | – | > 1000 mg/kg | 0.5% | 9.5% | 14.8 g | 9.75 c/ha | –
CCCCCCC(=O)OC(C(Cl)(Cl)Cl)P(=O)(Oc1ccc(C)cc1)Oc1ccc(C)cc1 (stereo not shown) [XXI] | – | – | – | – | – | – | – | 97% | – | > 1000 mg/kg | 0.5% | 7.5% | 18.2 g | 14.00 c/ha | –
CCCC(=O)OC(C(Cl)(Cl)Cl)P(=O)(Oc1cc(C)cc(C)c1)Oc1cc(C)cc(C)c1 (stereo not shown) [XXVIII] | – | – | – | – | – | – | – | 73% | – | > 1000 mg/kg | 0.5% | 7.0% | 16.6 g | 11.60 c/ha | –
CCC(=O)OC(C(Cl)(Cl)Cl)P(=O)(Oc1cc(C)cc(C)c1)Oc1cc(C)cc(C)c1 (stereo not shown) [XXVII] | – | – | – | – | – | – | – | 92% | – | > 1000 mg/kg | 0.5% | 10.5% | 17.1 g | 11.50 c/ha | –
CC(=O)OC(C(Cl)(Cl)Cl)P(=O)(Oc1cc(C)cc(C)c1)Oc1cc(C)cc(C)c1 (stereo not shown) [XXVI] | – | – | – | – | – | – | – | 84% | – | > 1000 mg/kg | 0.5% | 10.0% | 16.7 g | 11.70 c/ha | –
CCC(=O)OC(C(Cl)(Cl)Cl)P(=O)(Oc1ccc(Cl)cc1)Oc1ccc(Cl)cc1 (stereo not shown) [XXXI] | – | – | – | – | – | – | – | 82% and 59% | – | > 1000 mg/kg | 0.5% | 8.0% | 18.0 g | 13.30 c/ha | –
CC(=O)OC(C(Cl)(Cl)Cl)P(=O)(Oc1ccc(Cl)cc1)Oc1ccc(Cl)cc1 (stereo not shown) [XXX] | – | – | – | – | – | – | – | 89% and 68% | – | > 1000 mg/kg | 0.5% | 7.0% | 20.9 g | 16.70 c/ha | –
CCCC(=O)OC(C(Cl)(Cl)Cl)P(=O)(Oc1ccc(C)cc1)Oc1ccc(C)cc1 (stereo not shown) [XX] | – | – | – | – | – | – | – | 97% | – | > 1000 mg/kg | 0.5% | 7.5% | 18.2 g | 13.45 c/ha | –
CCOP(=O)(OCC)SCc1ccccc1 [kitacin, O,O-diethyl-S-benzylthiophosphate, reference compound] | – | – | – | – | – | – | – | – | – | – | – | – | – | – | 28.6 mg/L
